According to patent US8440592B2, “Use of abscisic acid combinations for thinning” (Valent BioSciences Corporation, priority 2007, dated 2013):

What was measured:
[1] = tested on: Pioneer McIntosh apple trees; assay: Example 4: fruit set of Pioneer McIntosh apple trees after BA and ABA sprays; type: in vivo; details: 75 ppm BA whole-tree spray, 300 ppm ABA on tagged limbs, or sequential BA then ABA, applied at 9 mm fruit size; for % Fruit Set: counted after June drop
Experimental: Pioneer McIntosh apple trees were selected for uniformity of bloom and 2 limbs per tree were tagged and all blossom clusters on the tagged limbs were counted. Treatments were applied to four replicate trees per treatment when the average fruit size was 9 mm. BA at 75 ppm was applied as a dilute solution sprayed on whole trees to the drip point on two of the four trees in each replication. […] The solution was shaken and then allowed to sit for 5 minutes. […] The fourth tree in each block received no spray and served as the control. At the end of the June drop period in July, all fruit on the tagged limbs was counted and recorded.

Empire apple trees = assay: Example 5: crop load and fruit size of Empire apple trees; type: in vivo; details: 100 ppm BA or mixture of 100 ppm BA and 1000 ppm ABA; sprayed at 8 mm fruit size; harvested at maturity
Experimental: Empire apple trees were selected for tree size and uniformity of bloom. Treatments were applied to five replicate trees per treatment when the average fruit size was 8 mm. BA at 100 ppm was applied as a dilute solution sprayed on whole trees to the drip point on five trees. […] Five trees were left untreated to act as control trees. At the end the season when the fruit were mature all the fruit were harvested and the number of fruit per tree and the average fruit size were determined.

[2] = tested on: European seedless cucumber (var. Flamingo) plants; assay: Example 6: foliar spray with ABA, abortion of cucumber fruits; type: in vivo; details: ABA 100 ppm sprayed to drip at 20 node growth stage
Experimental: European seedless cucumber (var. Flamingo) plants were grown in a greenhouse.

Cabernet Franc grapes [3] = assay: Example 1: dipping Cabernet Franc flower clusters at full bloom, berry number and cluster compactness; type: in vivo, grape; details: clusters dipped at full bloom; 10 ppm GA3, 300 ppm ABA or both together; harvested at commercial maturity; n = 10 clusters
Experimental: One cluster was tagged and treated with each of the treatments on each of 10 vines. The clusters were harvested at commercial maturity. Cluster compactness was assessed by counting the number of berries per cluster and measuring the total rachis length of each cluster and then calculating the number of berries per cm of rachis.

Cabernet Franc grapes [4] = assay: Example 2: dipping Cabernet Franc flower clusters at full bloom, berry number and cluster compactness; type: in vivo, grape; details: clusters dipped at full bloom; 300 ppm ABA, 10 ppm GA3 or 300 ppm ABA mixed with 10 ppm GA3; n = 10 clusters
Experimental: One cluster was tagged and treated with each of the treatments on each of 10 vines. The clusters were harvested at commercial maturity and berry number and cluster compactness were evaluated.

Thompson Seedless grape = assay: Example 3: spraying Thompson Seedless grape vines, bunch compactness at harvest; type: in vivo; details: sprayed twice, at 70% bloom and 100% bloom
Experimental: The applications were made twice, once at 70% bloom and once at 100% bloom. Grape bunch compactness was rated at harvest and the average bunch mass and the average number of berries per gram of rachis was determined.

Compound | Average Fruit Weight [1] [g] | % Fruit Set [1] [%] | Average Fruit Weight (Empire apple trees) [g] | Number of Fruit per Tree (Empire apple trees) | Rate of fruit abortion compared to the control plants [2] | Percentage of basal 18 cucumber fruits per plant that aborted ([2]; greenhouse, n = 5 replicate plants) [%] | Number of berries per cluster (Cabernet Franc grapes [3]) | Number of berries per cm rachis (Cabernet Franc grapes [3]) | Number of berries per cluster (Cabernet Franc grapes [4]) | Number of berries per cm rachis (Cabernet Franc grapes [4]) | Bunch Compactness (Thompson Seedless grape; rating scale 1 = very loose bunch, 5 = very tight bunch, rated at harvest) | Average bunch mass (Thompson Seedless grape; at harvest) [g] | Average number of berries per gram of rachis (Thompson Seedless grape; at harvest)
c1ccc(CNc2ncnc3nc[nH]c23)cc1 [BA, benzyladenine] | 190 | 75 | 123 | 137 |  |  |  |  |  |  |  |  | 
(S)-5-(1-hydroxy-2,6,6,-trimethyl-4-oxo-2-cyclohexen-1-yl)-3-methyl-(2Z,4E)-pentadienoic acid [ABA] | 146 | 25 |  |  | twice | 68 | 53.0 | 1.87 | 54.3 | 2.0 |  |  | 
gibberellic acid [GA3] |  |  |  |  |  |  | 34.8 | 1.33 | 37.6 | 1.35 | 2.3 | 830 | 5.7
